Assay results reported in patent publication US6177475A, “Methods of using integrin modulators for treatment of inflammation” (priority 1997, dated 2001).
pIC50: −log10 of the molar value.

Experiments:
VLA-4 (VCAM-1) = assay: Adhesion of TPA-activated Jurkat cells to SVT2/VCAM-1 monolayers; type: cell-based; details: Homo sapiens, 0.75 h, SVT2/VCAM-1, TPA 125 ng/ml, 45 min
Experimental: SVT2 cells transfected with human ICAM-1 or VCAM-1 (SVT2/ICAM-1 and […], respectively) were plated into 96-well plates and cultured overnight. […] The labeled Jurkat cells were washed three times and resuspended at a density of 4×10^6 cells/ml in complete RPMI medium. Serial dilutions of Ajoene were prepared in complete RPMI medium. Aliquots of the cells (0.5 ml) were then mixed with an equal volume of Ajoene dilutions (1:1 v/v), and the mixtures incubated at 37° C. for 30 min. Thereafter, Ajoene-incubated cells were added in duplicate to SVT2/ICAM-1 and SVT2/VCAM-1 monolayers, and TPA was introduced into each well to the final concentration of 125 ng/ml. The plates were incubated at 37° C. for 45 min, after which the non-adherent cells were removed by washing with warm complete RPMI medium. The bound labeled cells were lysed by adding 1% Triton X-100 solution in 0.1 N HCl. The lysates were assayed in a gamma counter to determine the percentage of bound cells. […] Thus, coculturing of Jurkat cells with SVT2/ICAM-1 and SVT2/VCAM-1 cells makes it possible to assess, respectively, the function of IFA-1 and VLA-4 under identical conditions. In the absence of TPA, 10 and 20% of the added Jurkat cells adhered to SVT2/ICAM-1 and SVT2/VCAM-1 cells, respectively. […]

[1] = tested on: human sperm / zona-free hamster oocytes; assay: Hamster oocyte penetration assay with capacitated human sperm; type: cell-based; details: 200 micromoles per l; 30 min pretreatment of sperm and oocytes
Experimental: The activity of Ajoene in the hamster oocyte penetration assay was tested. This assay is routinely used to test the ability of capacitated human sperm to penetrate oocytes.
To obtain oocytes, mature hamsters (on day 1 of the estrous cycle) were injected intraperitoneally with 40 International Units (IU) pregnant mare serum gonadotropin (PMSG), followed by 40 IU human chorionic gonadotropin (HCG) 55 hours late. After 16 hours, the animals were sacrificed by intracardiac injection of 0.1 ml T61 (euthanizing agent), the oviducts were removed, and the cumulus mass was collected. Cumulus cells were removed by hyaluronidase treatment, and the freed oocytes were transferred into a watchglass containing 3 ml Biggers-Whitter-Whittingham (BWW) medium supplemented with human serum albumin (HSA) (BWW/HSA; pH 7.5). […]
Human sperm was from a donor with known fertility (No. 113). […] A small portion of the original sample was analyzed (computer-assisted sperm analysis) using the Cell-Soft package. […] The swim-up was collected (about 0.5 ml), the cells were counted (Makler chamber), and their motility determined (%). […] Thereafter, motility and cell density were determined once again, and the sample was divided into three equal portions, each to be subjected to appropriate treatment. […]

LFA-1 = assay: TPA-induced homotypic adhesion (aggregation) of peripheral blood leukocytes; type: cell-based, human; details: ~100 micromoles per liter Ajoene
Experimental: Normal human peripheral blood leukocytes (PBLS) were cultured for 5 days without stimulation in complete RPMI medium (Sigma Chemical Co., St. Louis, Mo.), washed, and resuspended at 9×10^6 cells/ml in the same medium. Fifty microliters of the cells were added in duplicate to wells containing 100 microliters of an Ajoene solution (50 micrograms/ml),anti-LFA-1 antibody (H52) solution (20 micrograms/ml), or vehicle controls. The plate was then incubated for 30 min at 37° C. before adding to each well 50 microliters of a solution of 12-O-tetradecanoyl 4-β-phorbol 13-acetate (TPA) to the final concentration of 125 ng/ml). The plate was incubated for 45 min at 37° C., followed by additional 10-min incubation at room temperature on a shaking platform. The cells were allowed to settle, and adhesion was quantitated by counting the number of free cells in random high-power fields in the duplicate wells. Following incubation with TPA, 75 to 90% of cells are typically found in large aggregates as a result of LFA-1 upregulation. TPA induced a 90% aggregation in PBLs that were preincubated with vehicle controls. […] This example provides conclusive evidence that, in addition to GP IIb/IIIa and VIA-4, Ajoene modulates the integrin LFA-1. […]

HIV-1RF = HIV-1RF replication in H9 cells (HIV antigens by solid phase immunoassay); type: cell-based; details: Human immunodeficiency virus 1, m.o.i. 0.1, 72 h
melanoma B16 cells = assay: Experimental metastasis, lung colonization by melanoma B16 cells; type: in vivo, C57BL/6 mice; details: B16 cells pretreated 30 min; 200 micromoles per liter; 3 weeks
Experimental: A suspension of 10^5 melanoma B16 cells was pretreated for 30 min with Ajoene, and the suspension (including Ajoene) was injected intravenously into male C57BL/6 mice. The mice were sacrificed 3 weeks post-injection, and their lungs subjected to microscopic examination.

GP IIb/IIIa = details: cited from earlier work

SMILES: C=CCSSC=CC[S+]([O-])CC=C (stereo not shown) [Ajoene, 4,5,9-trithiadodeca-1,6,11-triene-9-oxide]
- pIC50 (VLA-4 (VCAM-1)): ~4.70
- Penetration (penetrated oocytes / total oocytes) [1]: 0%
- inhibition of TPA-induced homotypic adhesion of PBLs (LFA-1): completely inhibited
- pIC50 (HIV-1RF): 4.60
- prevention of lung colonization (melanoma B16 cells): prevented lung colonization
- inhibition of platelet aggregation by inactivation of GP IIb/IIIa (GP IIb/IIIa; Apitz-Castro et al., 1986): inhibit platelet aggregation by inactivating allosterically the platelet integrin, GP IIb/IIIa
- reversibility of integrin inhibition (GP IIb/IIIa): reversible
